The text below walks through data of PubChem BioAssay AID1963865 (Molecular Pharmacology Branch, DTP, NCI, 2024).

As a reminder, the IC50 is the concentration at which inhibition is half-maximal. What is called viability, T/C is the ratio of treated to control.

The subject of the experiment is KRAS PDC multicell spheroid viability. The experiment is described as follows: Anticancer human tumor 825966-067-R-J1-PDC patient-derived colon carcinoma cell line growth inhibition [KRAS2]. As to conditions: for viability, T/C: stronger effect = lower value. The text has this: Multicellular complex tumor spheroid response to RAS pathway inhibitors in combination with a targeted agents in patient-derived cell lines with oncogenic KRAS variants from multiple cancer types
A high-throughput screen of multi-cell type tumor spheroids was designed to identify active combinations of targeted small molecules and KRAS pathway inhibitors. Complex spheroids include a stromal component modeled by human endothelial cells (HUVEC) and fibroblasts modeled by human mesenchymal stem cells (MSCs). The concentration ranges selected for each drug and investigational agent were based upon clinically achievable concentrations if the clinical Cmax of the agent was known.
Compounds. The drugs and investigational agents: BI-3406 (NSC825286), BAY-293 (NSC824723), batoprotafib (TNO155; NSC825523), sotorasib (AMG 510; NSC818433), MRTX1257 (NSC819558), elimusertib (BAY 1895344; NSC800525), molibresib (GSK525762; NSC774829), temuterkib (LY3214996; NSC803410), venetoclax (NSC766270), alisertib (NSC759677), olaparib (NSC753686), talazoparib (NSC767125), erdafitinib (NSC781556), ipatasertib (NSC767898), cabozantinib (NSC761068), nintedanib (NSC756659), abemaciclib (NSC768073), docetaxel (NSC628503), trametinib (NSC758246), and sapanisertib (NSC764658) were obtained from the National Cancer Institute (NCI) Developmental Therapeutics Program Chemical Repository. The FDA-approved anticancer drug set is available from the Developmental Therapeutics Program. […] The stock solutions were prepared in dimethyl sulfoxide (DMSO, Sigma-Aldrich, St. Louis, MO, cat. D2650) at 800-fold the tested concentration and stored at -70 degrees C prior to their use. All drugs and investigational agents were tested over a range starting from a high concentration at or near the clinical Cmax and decreasing in half-log increments. If the clinical Cmax for an agent had not been determined, the highest concentration tested was 10 microM.
Cell Culture. All cells were maintained in an incubator at 37 degrees C and 5% CO2 with 95% humidity. The PDC lines were cultured according to standard operating procedures established by the NCI PDMR (https://pdmr.cancer.gov/sops/default.htm). Briefly, all PDCs were thawed and cultured in Matrigel-coated flasks prepared with a working solution of 1X Ham's F-12 nutrient mix, without supplementation (Invitrogen, Waltham, MA, cat. 11765054), 100 U/mL penicillin-streptomycin (Invitrogen, cat. 15140122), and 2.5% Matrigel (Corning Inc., Corning, NY, cat. 354248) for the first three passages. All PDCs were cultured in complete DMEM/F-12 media containing advanced DMEM/F-12 (Invitrogen, cat. 12634028), 4.9% defined fetal bovine serum, heat inactivated (HyClone Laboratories Inc., Logan, UT, cat. SH30070.03HI), 389 ng/mL hydrocortisone (Sigma-Aldrich, cat. H4001), 9.7 ng/mL human EGF recombinant protein (Invitrogen, cat. PHG0313), 23.4 microg/mL adenine (Sigma-Aldrich, cat. A2786), 97.3 U/mL penicillin-streptomycin (Invitrogen, cat. 15140122), 1.9 mM L-glutamine (Invitrogen, cat. 25030081), and 9.7 microM Y-27632 dihydrochloride (Tocris Bioscience, Bristol, United Kingdom, cat. 1254). The PDCs were cultured in complete DMEM/F12 media without 9.7 microM Y-27632 dihydrochloride for at least two passages prior to the screen. The established cell line HOP-62 was cultured in RPMI 1640 medium, HEPES (Invitrogen, cat. 22400105) with 10% defined fetal bovine serum (HyClone Laboratories Inc., cat. SH30070.03) and 2 mM L-glutamine (Invitrogen, cat. 25030081). The pooled donor HUVEC were cultured in endothelial cell growth medium 2 (PromoCell, Heidelberg, Germany, cat. C-22011) and the hMSC were cultured in mesenchymal stem cell growth medium 2 (PromoCell, cat. C-28009). For all experiments, HUVEC and hMSC were used at passages </=5, while the malignant cell lines were used at passages </=15. […]

The mark [1] stands for this setting: curve of first compound, second compound 0.1 µM.
The mark [2] stands for this setting: curve of first compound, second compound 0.316 µM.
Setting [3] is: curve of first compound, second compound 1 µM.
The mark [4] stands for this setting: curve of first compound, second compound 3.16 µM.
[5] abbreviates: curve of first compound, second compound 10 µM.
Setting [6] is: second compound 0.1 µM, first compound 0.0316 µM.
Setting [7] is: second compound 0.1 µM, first compound 0.1 µM.
The mark [8] stands for this setting: second compound 0.1 µM, first compound 0.316 µM.
The mark [9] stands for this setting: second compound 0.1 µM, first compound 1 µM.
Where [10] appears, read: second compound 0.1 µM, first compound 3.16 µM.
[11] abbreviates: second compound 0.316 µM, first compound 0.0316 µM.
The mark [12] stands for this setting: second compound 0.316 µM, first compound 0.1 µM.
Setting [13] is: second compound 0.316 µM, first compound 0.316 µM.
Where [14] appears, read: second compound 0.316 µM, first compound 1 µM.
Setting [15] is: second compound 0.316 µM, first compound 3.16 µM.
Setting [16] is: second compound 1 µM, first compound 0.0316 µM.
[17] abbreviates: second compound 1 µM, first compound 0.1 µM.
Where [18] appears, read: second compound 1 µM, first compound 0.316 µM.
Where [19] appears, read: second compound 1 µM, first compound 1 µM.
Where [20] appears, read: second compound 1 µM, first compound 3.16 µM.
The mark [21] stands for this setting: second compound 3.16 µM, first compound 0.0316 µM.
Setting [22] is: second compound 3.16 µM, first compound 0.1 µM.
Where [23] appears, read: second compound 3.16 µM, first compound 0.316 µM.
[24] abbreviates: second compound 3.16 µM, first compound 1 µM.
[25] abbreviates: second compound 3.16 µM, first compound 3.16 µM.
Where [26] appears, read: second compound 10 µM, first compound 0.0316 µM.
[27] abbreviates: second compound 10 µM, first compound 0.1 µM.
The mark [28] stands for this setting: second compound 10 µM, first compound 0.316 µM.
Setting [29] is: second compound 10 µM, first compound 1 µM.
The mark [30] stands for this setting: second compound 10 µM, first compound 3.16 µM.
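Also: spheroids exposed to compounds for 7 days.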

As for `CC1(C)CCC(CN2CCN(c3ccc(C(=O)NS(=O)(=O)c4ccc(NCC5CCOCC5)c([N+](=O)[O-])c4)c(Oc4cnc5[nH]ccc5c4)c3)CC2)=C(c2ccc(Cl)cc2)C1` + C=CC(=O)N1CCN(c2nc(=O)n(-c3c(C)ccnc3C(C)C)c3nc(-c4c(O)cccc4F)c(F)cc23)C(C)C1, the half-inhibitory concentration (IC50) is, setting by setting: under setting [1], 2020 nM; under setting [2], 2190 nM; under setting [3], 2070 nM; under setting [4], 1770 nM; under setting [5], 1900 nM. The viability, T/C under setting [6] was 90.5%; the viability, T/C under setting [7] is 99.3%; the viability, T/C under setting [8] was 115%; the viability, T/C under setting [9] was 95.9%; the viability, T/C under setting [10] is 20.8%; the viability, T/C (second compound 0.1 µM, first compound 10 µM) is 6.39%. Moreover, the viability, T/C was 93.6% under setting [11]; 86.6% under setting [12]; 103% under setting [13]; 94.7% under setting [14]; 29.2% under setting [15]; 5.85% (second compound 0.316 µM, first compound 10 µM). In addition, the viability, T/C under setting [16] is 102%; the viability, T/C under setting [17] was 108%; the viability, T/C under setting [18] is 81.2%; the viability, T/C under setting [19] was 104%; the viability, T/C under setting [20] was 21.3%; the viability, T/C (second compound 1 µM, first compound 10 µM) is 1.24%. Besides, the viability, T/C under setting [21] was 76.4%; the viability, T/C under setting [22] is 103%; the viability, T/C under setting [23] is 102%; the viability, T/C under setting [24] is 81.1%; the viability, T/C under setting [25] was 18.2%; the viability, T/C (second compound 3.16 µM, first compound 10 µM) was 2.96%. The viability, T/C by setting is: under setting [26], 89.7%; under setting [27], 98.1%; under setting [28], 107%; under setting [29], 110%; under setting [30], 9.64%; (second compound 10 µM, first compound 10 µM) 1.37%.
`Cn1nccc1Nc1nccc(-c2cc3c(s2)C(C)(C)N(CCN2CCOCC2)C3=O)n1`: the viability, T/C (compound 0.0316 µM) was 90.9% [middle of 5 runs]; the viability, T/C (compound 0.1 µM) is 94.8% [middle of 5 runs]; the viability, T/C (compound 0.316 µM) is 109% [middle of 5 runs]; the viability, T/C (compound 3.16 µM) is 96% [middle of 5 runs]; the viability, T/C (compound 10 µM) is 81.8% [middle of 5 runs]. The half-maximal inhibitory concentration (IC50) (curve of compound) was > 10000 nM.
On to `CC(=O)OC12COC1CC(O)C1(C)C(=O)C(O)C3=C(C)C(OC(=O)C(O)C(NC(=O)OC(C)(C)C)c4ccccc4)CC(O)(C(OC(=O)c4ccccc4)C21)C3(C)C` (stereo not drawn) + COc1cc2nc(C)nc(NC(C)c3cc(N)cc(C(F)(F)F)c3)c2cc1OC1CCOC1, for which the IC50 was < 10 nM under setting [1]; < 10 nM under setting [2]; < 10 nM under setting [3]; < 10 nM under setting [4]; < 10 nM under setting [5]. Also, the viability, T/C was 18.9% (second compound 0.1 µM, first compound 0.01 µM); 24.6% under setting [6]; 35.8% under setting [7]; 17.3% under setting [8]; 26.8% under setting [9]; 34.5% under setting [10]. In addition, the viability, T/C (second compound 0.316 µM, first compound 0.01 µM) was 23.8%; the viability, T/C under setting [11] was 29.3%; the viability, T/C under setting [12] is 23.1%; the viability, T/C under setting [13] was 38.4%; the viability, T/C under setting [14] is 24%; the viability, T/C under setting [15] is 44%. For the same compound, the viability, T/C is 16.9% (second compound 1 µM, first compound 0.01 µM); 29.3% under setting [16]; 27.6% under setting [17]; 18.7% under setting [18]; 24.7% under setting [19]; 29.6% under setting [20]. Besides, the viability, T/C was 16.6% (second compound 3.16 µM, first compound 0.01 µM); 13.4% under setting [21]; 29.2% under setting [22]; 16.4% under setting [23]; 21.3% under setting [24]; 25.1% under setting [25]. Also, the viability, T/C reads like this: (second compound 10 µM, first compound 0.01 µM) 11.7%; under setting [26], 15%; under setting [27], 19.3%; under setting [28], 14.2%; under setting [29], 20.9%; under setting [30], 12.4%.
`CC(C)n1nc(-c2ccc3oc(N)nc3c2)c2c(N)ncnc21`: the viability, T/C (compound 0.00316 µM) is 127% [middle of 5 runs]. Further, the IC50 (curve of compound) is > 100 nM.
